These results are taken from US7968508B2, “Benzophenone or benzoic acid anilide derivatives containing carboxyl groups as enzyme stabilizers” (priority 2007, dated 2011).

Molecules are shown by their SMILES.

The assay has as its target Bacillus lentus alkaline protease F49 (Lederbergia lenta, UniProt P29599, A188P/L211D/S3T/V193M/V199I). Put plainly: Residual protease activity in the presence of an inhibitor. The class given is biochemical. The conditions noted are these: compound 10 mM; substrate AAPFpNA; pH 8.6, 25° C. As for the experimental part:
To verify that the compounds listed below have a protease activity-inhibiting effect, the residual proteolytic activity of the Bacillus lentus alkaline protease F49 (according to WO 95/23221 A1) was determined in the presence of these compounds.
The substrate succinyl-alanine-alanine-proline-phenylalanine-para-nitroanilide (AAPFpNA; Bachem L-1400) and 5×10^−9 and/or 1×10^−8 M of the protease were placed in 100 mM Tris buffer. The compounds to be tested as listed in Table 1 were then added in a final concentration of 10 mM. Each was dissolved in anhydrous DMSO, correcting for the effect of DMSO on the enzymatic activity by means of a corresponding reference with the same amount of DMSO but without the respective compound. The batches were incubated for 5 minutes at pH 8.6 and 25° C., where 1 U corresponds to 1 μmol substrate cleaved per minute.

Sequence of Bacillus lentus alkaline protease F49 (P29599 other isoform, or with tags, fused parts or gaps A188P/V193M/V199I/L211D): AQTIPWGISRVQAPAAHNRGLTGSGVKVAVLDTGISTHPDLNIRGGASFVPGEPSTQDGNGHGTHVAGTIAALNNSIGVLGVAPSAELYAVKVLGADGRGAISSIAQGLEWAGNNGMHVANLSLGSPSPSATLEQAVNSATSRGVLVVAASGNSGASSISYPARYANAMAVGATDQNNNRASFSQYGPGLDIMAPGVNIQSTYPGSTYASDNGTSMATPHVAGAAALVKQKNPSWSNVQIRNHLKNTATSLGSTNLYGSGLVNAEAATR

On to `O=C(O)c1ccc(C(=O)c2ccccc2C(=O)O)cc1` [V4, 2-(4-carboxybenzoyl)benzoic acid], for which the “relative strength as protease inhibitor and/or stabilizer (rank order V1, V2, V3, V4, V5)” value is listed as “practically just as good as V3”.
In the case of `O=C(O)c1cccc(NC(=O)c2ccccc2C(=O)O)c1` [V1, 2-[[(3-carboxyphenyl)amino]carbonyl]benzoic acid], the “relative strength as protease inhibitor and/or stabilizer (rank order V1, V2, V3, V4, V5)” value is “the strongest”.
